From patent publication US9346809B2 (LEO PHARMA A/S, priority 2009, dated 2016)
Read-outs that look alike come from different tables or passages of the source.

Tests used:
Assay type in all cases: biochemical
[1] = target: T1, JAK1 (aa 850-1154, catalytic domain, GST-tag) (Homo sapiens, UniProt P23458); assay: JAK kinase assay (HTRF, phosphorylation of TK substrate-biotin), JAK1; conditions: ATP at Km (7 μM)
T1 construct: JAK1 (aa 850-1154) and TYK2 (aa 871-1187) are expressed with an N-terminally fused GST-tag; GST (N); purchased Carna Biosciences, Inc; host or cells: baculovirus expression system
T1 sequence (P23458 850-1154): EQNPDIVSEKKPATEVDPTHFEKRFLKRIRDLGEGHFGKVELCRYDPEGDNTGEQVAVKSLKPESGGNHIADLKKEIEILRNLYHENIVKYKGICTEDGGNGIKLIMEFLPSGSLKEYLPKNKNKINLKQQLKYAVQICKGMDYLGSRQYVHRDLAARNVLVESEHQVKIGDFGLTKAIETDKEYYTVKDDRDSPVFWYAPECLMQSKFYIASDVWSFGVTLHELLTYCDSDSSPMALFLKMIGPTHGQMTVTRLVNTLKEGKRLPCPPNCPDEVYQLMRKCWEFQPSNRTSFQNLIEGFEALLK
Procedure, shortened: (§1)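 EC50 values come from HTRF signal of phospho-peptide detected by STK Ab Cryptate and Streptavidin-XL665 after overnight incubation. Reactions ran 20-30 min at RT in Hepes pH 7.0, 0.01% BSA, 1 mM DTT, with ATP at Km: 7, 4, 2 and 13 μM for JAK1, JAK2, JAK3, TYK2.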

[2] = target: T2, JAK2 (catalytic domain, His-tag) (Homo sapiens, UniProt O60674); assay: JAK kinase assay (HTRF, phosphorylation of TK substrate-biotin), JAK2; conditions: ATP at Km (4 μM)
T2 construct: All four purified enzymes contain only the catalytic domain; His (N); purchased Carna Biosciences, Inc; host or cells: baculovirus expression system
T2 sequence (O60674 849-1124 limits assumed): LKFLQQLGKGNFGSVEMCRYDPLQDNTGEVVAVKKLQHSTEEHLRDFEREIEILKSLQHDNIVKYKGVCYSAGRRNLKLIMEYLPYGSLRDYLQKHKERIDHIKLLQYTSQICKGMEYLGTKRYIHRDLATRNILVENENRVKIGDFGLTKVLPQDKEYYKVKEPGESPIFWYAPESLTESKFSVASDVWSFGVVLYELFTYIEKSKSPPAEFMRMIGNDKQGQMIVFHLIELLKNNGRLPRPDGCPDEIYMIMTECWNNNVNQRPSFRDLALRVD
Procedure, shortened: as §1

[3] = target: T3, JAK3 (catalytic domain, His-tag) (Homo sapiens, UniProt P52333); assay: JAK kinase assay (HTRF, phosphorylation of TK substrate-biotin), JAK3; conditions: ATP at Km (2 μM)
T3 construct: All four purified enzymes contain only the catalytic domain; His (N); purchased Carna Biosciences, Inc; host or cells: baculovirus expression system
T3 sequence (P52333 822-1111 limits assumed): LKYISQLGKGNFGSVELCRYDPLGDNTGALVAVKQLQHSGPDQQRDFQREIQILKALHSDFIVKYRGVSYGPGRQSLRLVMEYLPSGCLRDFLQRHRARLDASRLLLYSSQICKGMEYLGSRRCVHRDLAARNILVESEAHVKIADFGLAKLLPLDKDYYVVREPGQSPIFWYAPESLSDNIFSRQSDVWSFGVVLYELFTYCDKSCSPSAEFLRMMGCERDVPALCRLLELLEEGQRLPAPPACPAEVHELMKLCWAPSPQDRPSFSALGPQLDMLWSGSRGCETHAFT
Procedure, shortened: as §1

[4] = target: T4, TYK2 (aa 871-1187, catalytic domain, GST-tag) (Homo sapiens, UniProt P29597); assay: JAK kinase assay (HTRF, phosphorylation of TK substrate-biotin), TYK2; conditions: ATP at Km (13 μM)
T4 construct: JAK1 (aa 850-1154) and TYK2 (aa 871-1187) are expressed with an N-terminally fused GST-tag; GST (N); purchased Carna Biosciences, Inc; host or cells: baculovirus expression system
T4 sequence (P29597 871-1187): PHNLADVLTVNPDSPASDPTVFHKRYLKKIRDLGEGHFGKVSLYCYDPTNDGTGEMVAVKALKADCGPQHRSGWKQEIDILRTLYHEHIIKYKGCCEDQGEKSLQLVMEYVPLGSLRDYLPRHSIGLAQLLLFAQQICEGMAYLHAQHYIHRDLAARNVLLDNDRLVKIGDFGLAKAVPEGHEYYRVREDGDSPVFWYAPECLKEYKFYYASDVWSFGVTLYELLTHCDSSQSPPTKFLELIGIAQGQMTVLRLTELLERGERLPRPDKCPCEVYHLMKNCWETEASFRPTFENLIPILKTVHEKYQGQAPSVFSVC
Procedure, shortened: as §1

[5] = read-out: JAK1 kinase inhibitory activity (EC50 indicator)
[6] = read-out: JAK2 kinase inhibitory activity (EC50 indicator)
[7] = read-out: JAK3 kinase inhibitory activity (EC50 indicator)
[8] = read-out: TYK2 kinase inhibitory activity (EC50 indicator)
[9] = HTRF assay, read-out: JAK1 kinase inhibitory activity (EC50)
[10] = HTRF assay, read-out: JAK2 kinase inhibitory activity (EC50)
[11] = HTRF assay, read-out: JAK3 kinase inhibitory activity (EC50)
[12] = HTRF assay, read-out: TYK2 kinase inhibitory activity (EC50)
[13] = HTRF assay, read-out: JAK1 kinase inhibitory activity (EC50 indicator)
[14] = HTRF assay, read-out: JAK2 kinase inhibitory activity (EC50 indicator)
[15] = HTRF assay, read-out: JAK3 kinase inhibitory activity (EC50 indicator)
[16] = HTRF assay, read-out: TYK2 kinase inhibitory activity (EC50 indicator)

| SMILES | EC50 [1, 5] | EC50 [2, 6] | EC50 [3, 7] | EC50 [4, 8] | EC50 [1, 13] | EC50 [2, 14] | EC50 [3, 15] | EC50 [4, 16] | also measured |
| --- | --- | --- | --- | --- | --- | --- | --- | --- | --- |
| NS(=O)(=O)c1ccc(C(=O)C(=O)N2CCN(c3ncnc4[nH]ccc34)CC23CC3)cc1 [Example 63, 4-{2-Oxo-2-[7-(7H-pyrrolo[2,3-d]pyrimidin-4-yl)-4,7-diaza-spiro[2.5]oct-4-yl]-acetyl}-benzenesulfonamide] | < 100 nM | < 100 nM | < 100 nM | < 100 nM |  |  |  |  |  |
| O=C(c1ccc(C(F)(F)F)cc1)N1CCN(c2ncnc3[nH]ccc23)CC12CC2 [Example 48, [7-(7H-Pyrrolo[2,3-d]pyrimidin-4-yl)-4,7-diaza-spiro[2.5]oct-4-yl]-(4-trifluoromethylphenyl)methanone] | < 100 nM | < 100 nM | 100 to 500 nM | > 500 nM |  |  |  |  |  |
| N#Cc1ccc(CS(=O)(=O)N2CCN(c3ncnc4[nH]ccc34)CC23CC3)cc1 [Example 79, 4-[7-(7H-Pyrrolo[2,3-d]pyrimidin-4-yl)-4,7-diaza-spiro[2.5]octane-4-sulfonylmethyl]-benzonitrile] | < 100 nM | < 100 nM | 100 to 500 nM | > 500 nM |  |  |  |  |  |
| O=C(NC1CCCCC1)N1CCN(c2ncnc3[nH]ccc23)CC12CC2 [Example 436, 7-(7H-Pyrrolo[2,3-d]pyrimidin-4-yl)-4,7-diaza-spiro[2.5]octane-4-carboxylic acid cyclohexylamide] |  |  |  |  |  |  |  |  | EC50 [1, 9]: < 100 nM; EC50 [2, 10]: < 100 nM; EC50 [3, 11]: < 100 nM; EC50 [4, 12]: 100 to 500 nM |
| N#CCc1cccc(CC(=O)N2CCN(c3ncnc4[nH]cc(Cl)c34)CC23CC3)c1 [Example 318, (3-{2-[7-(5-Chloro-7H-pyrrolo[2,3-d]pyrimidin-4-yl)-4,7-diaza-spiro[2.5]oct-4-yl]-2-oxo-ethyl}-phenyl)-acetonitrile] |  |  |  |  | > 500 nM | > 500 nM | > 500 nM | > 500 nM |  |
| O=C(O)C1(C(=O)N2CCN(c3ncnc4[nH]ccc34)CC23CC3)CC1 [Example 85, 1-[7-(7H-Pyrrolo[2,3-d]pyrimidin-4-yl)-4,7-diaza-spiro[2.5]octane-4-carbonyl]-cyclopropanecarboxylic acid] | > 500 nM | 100 to 500 nM | > 500 nM | > 500 nM |  |  |  |  |  |
| O=C(Oc1ccc(Cl)cc1)N1CCN(c2ncnc3[nH]ccc23)CC12CC2 [Example 446, 7-(7H-Pyrrolo[2,3-d]pyrimidin-4-yl)-4,7-diaza-spiro[2.5]octane-4-carboxylic acid 4-chloro-phenyl ester] |  |  |  |  |  |  |  |  | EC50 [1, 9]: < 100 nM; EC50 [2, 10]: < 100 nM; EC50 [3, 11]: 100 to 500 nM; EC50 [4, 12]: > 500 nM |
| CCOC(=O)NC(=S)N1[C@@H]2CC[C@H]1CN(c1ncnc3[nH]ccc13)C2 [Example 29, [3-(7H-Pyrrolo[2,3-d]pyrimidin-4-yl)-3,8-diazabicyclo[3.2.1]octane-8-carbothioyl]carbamic acid ethyl ester] | 100 to 500 nM | 100 to 500 nM | > 500 nM | > 500 nM |  |  |  |  |  |
| S=C(NCc1ccccc1)N1[C@@H]2CC[C@H]1CN(c1ncnc3[nH]ccc13)C2 [Example 11, 3-(7H-Pyrrolo[2,3-d]pyrimidin-4-yl)-3,8-diazabicyclo[3.2.1]octane-8-carbothioic acid benzylamide] | < 100 nM | < 100 nM | 100 to 500 nM | > 500 nM |  |  |  |  |  |
| CN(C)CCC(=O)N1CCN(c2ncnc3[nH]ccc23)CC12CC2 [Example 457, 3-Dimethylamino-1-[7-(7H-pyrrolo[2,3-d]pyrimidin-4-yl)-4,7-diaza-spiro[2.5]oct-4-yl]-propan-1-one] |  |  |  |  |  |  |  |  | EC50 [1, 9]: > 500 nM; EC50 [2, 10]: > 500 nM; EC50 [3, 11]: > 500 nM; EC50 [4, 12]: > 500 nM |
| N#CCc1ccc(CC(=O)N2CCN(c3ncnc4[nH]cc(Cl)c34)CC23CC3)cc1 [Example 319, (4-{2-[7-(5-Chloro-7H-pyrrolo[2,3-d]pyrimidin-4-yl)-4,7-diaza-spiro[2.5]oct-4-yl]-2-oxo-ethyl}-phenyl)-acetonitrile] |  |  |  |  | > 500 nM | 100 to 500 nM | 100 to 500 nM | > 500 nM |  |
| O=C(c1cccc(C(F)(F)F)c1)N1CCN(c2ncnc3[nH]ccc23)CC12CC2 [Example 20, [7-(7H-Pyrrolo[2,3-d]pyrimidin-4-yl)-4,7-diazaspiro[2.5]oct-4-yl]-(3-trifluoromethylphenyl)methanone] | < 100 nM | < 100 nM | 100 to 500 nM | 100 to 500 nM |  |  |  |  |  |
| CN(C)S(=O)(=O)c1ccc(C(=O)N2CCN(c3ncnc4[nH]ccc34)CC23CC3)cc1 [Example 189, N,N-Dimethyl-4-[7-(7H-pyrrolo[2,3-d]pyrimidin-4-yl)-4,7-diaza-spiro[2.5]octane-4-carbonyl]-benzenesulfonamide] | < 100 nM | < 100 nM | 100 to 500 nM | 100 to 500 nM |  |  |  |  |  |
| O=C(c1ccccc1)N1CCN(c2ncnc3[nH]ccc23)CC12CC2 [Example 27, Phenyl-[7-(7H-pyrrolo[2,3-d]pyrimidin-4-yl)-4,7-diazaspiro[2.5]oct-4-yl]methanone] | < 100 nM | < 100 nM | 100 to 500 nM | 100 to 500 nM |  |  |  |  |  |
| O=C(c1ccncc1)N1[C@@H]2CC[C@@H]1CN(c1ncnc3[nH]ccc13)C2 [Example 242, Pyridin-4-yl-[3-(7H-pyrrolo[2,3-d]pyrimidin-4-yl)-3,8-diaza-bicyclo[3.2.1]oct-8-yl]-methanone] |  |  |  |  | < 100 nM | < 100 nM | 100 to 500 nM | > 500 nM |  |
| N#CCCC(=O)N1[C@@H]2CC[C@@H]1CN(c1ncnc3[nH]ccc13)C2 [Example 182, 4-Oxo-4-[3-(7H-pyrrolo[2,3-d]pyrimidin-4-yl)-3,8-diaza-bicyclo[3.2.1]oct-8-yl]-butyronitrile] | < 100 nM | < 100 nM | 100 to 500 nM | 100 to 500 nM |  |  |  |  |  |
| O=C(c1csc2ccccc12)N1CCN(c2ncnc3[nH]ccc23)CC12CC2 [Example 214, Benzo[b]thiophen-3-yl-[7-(7H-pyrrolo[2,3-d]pyrimidin-4-yl)-4,7-diaza-spiro[2.5]oct-4-yl]-methanone] |  |  |  |  | < 100 nM | < 100 nM | < 100 nM | < 100 nM |  |
| O=C(N1CCN(c2ncnc3[nH]ccc23)CC12CC2)C1(c2ccccc2)CC1 [Example 154, (1-Phenyl-cyclopropyl)-[7-(7H-pyrrolo[2,3-d]pyrimidin-4-yl)-4,7-diaza-spiro[2.5]oct-4-yl]-methanone] | 100 to 500 nM | < 100 nM | > 500 nM | > 500 nM |  |  |  |  |  |
| CC(C)S(=O)(=O)Nc1ccc(C(=O)N2CCN(c3ncnc4[nH]ccc34)CC23CC3)cc1 [Example 432, Propane-2-sulfonic acid {4-[7-(7H-pyrrolo[2,3-d]pyrimidin-4-yl)-4,7-diaza-spiro[2.5]octane-4-carbonyl]-phenyl}-amide] |  |  |  |  | < 100 nM | < 100 nM | < 100 nM | 100 to 500 nM |  |
| Cc1ccc2sc(C(=O)N3[C@@H]4CC[C@H]3CN(c3ncnc5[nH]ccc35)C4)cc2c1 [Example 247, (5-Methyl-benzo[b]thiophen-2-yl)-[3-(7H-pyrrolo[2,3-d]pyrimidin-4-yl)-3,8-diaza-bicyclo[3.2.1]oct-8-yl]-methanone] |  |  |  |  | < 100 nM | < 100 nM | 100 to 500 nM | > 500 nM |  |
